The subject of one assay is Sphaerotheca fuliginea. Nature of the assay: In vivo preventive test on Sphaerotheca fuliginea (powdery mildew on cucurbits). The settings on record: Podosphaera fuliginea, 192 h; 500 ppm of active ingredient; preventive spray on gherkin; evaluated 8 days after inoculation; read-out: efficacy. The method in brief:
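Young gherkin plants were sprayed with compound in DMSO/acetone/Tween 80 diluted in water. They were inoculated 24 h later with a spore suspension of Sphaerotheca fuliginea. Plants were then kept for 8 days at 20 °C and 70–80% relative humidity.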

Assay [1] concerns Colletotrichum lindemuthianum. Nature of the assay: In vivo preventive test on Colletotrichum lindemuthianum (leaf spot on bean). The settings on record: 168 h, 500 ppm of active ingredient, preventive spray on bean, evaluated 7 days after inoculation, read-out: efficacy. The essentials: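 Young bean plants sprayed with compound in DMSO/acetone/Tween 80 diluted in water; solvent-only controls. Inoculated 24 h later with C. lindemuthianum spore suspension, then kept 24 h at 20 °C/100% RH and 6 days at 20 °C/90% RH.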

Assay [2] relates to Colletotrichum lindemuthianum. In words: B-8. Colletotrichum lindemuthianum in vitro cell test. The settings on record: 144 h, 20 ppm of active ingredient, 6 days incubation, liquid culture, absorbance, read-out: efficacy (inhibition of fungal growth). The format is cell-based. The method in brief:
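Spore suspension of C. lindemuthianum in liquid medium exposed to DMSO-solubilized compounds (final DMSO ≤1%) for 6 days. Mycelial growth read by absorbance, with inhibition calculated relative to compound-free control wells.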

Assay [3] has as its system Botrytis cinerea. Nature of the assay: In vivo preventive test on Botrytis cinerea (grey mould). The following applies: 500 ppm of active ingredient, preventive spray on gherkin or cabbage, evaluated 4 to 5 days after inoculation, read-out: efficacy. The essentials: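 Young gherkin or cabbage plants were sprayed with compound in DMSO/acetone/Tween 80 diluted in water, then inoculated 24 hours later with a B. cinerea spore suspension. Incubation lasted 4 to 5 days: gherkin at 17° C., 90% relative humidity; cabbage at 20° C., 100% relative humidity.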

The next assay relates to Pyrenophora teres. In words: B-10. Pyrenophora teres in vitro cell test. The format is cell-based. The settings on record: 144 h, 20 ppm of active ingredient, 6 days incubation, liquid culture, absorbance, read-out: efficacy (inhibition of fungal growth). The essentials: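 Liquid-culture assay on a P. teres spore suspension with compounds added to the medium from DMSO solutions, final DMSO ≤1%. Mycelium growth read spectrometrically after 6 days. Inhibition calculated from absorbance against untreated control wells.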

Assay [4] concerns Botrytis cinerea. In words: B-11. Botrytis cinerea in vitro cell test. The settings on record: 144 h, 20 ppm of active ingredient, 6 days incubation, liquid culture, absorbance, read-out: efficacy (inhibition of fungal growth). Type of assay: cell-based. The essentials: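 B. cinerea spores were grown in liquid culture with compound (DMSO ≤1% final). Mycelium growth was measured spectrometrically after 6 days, with inhibition taken as absorbance relative to untreated control wells.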

The test system of the next assay is Alternaria brassicae. Nature of the assay: In vivo preventive test on Alternaria brassicae (leaf spot on radish or cabbage). The settings on record: 500 ppm of active ingredient, preventive spray on radish or cabbage, evaluated 3 to 4 days after inoculation, read-out: efficacy. The method in brief: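 Young radish or cabbage plants were sprayed with compound dissolved in DMSO/acetone/Tween 80 and diluted in water; controls received solvent only. Inoculation by spraying A. brassicae spore suspension 24 h later, then 3–4 days at 20 °C and 100% relative humidity.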

A further assay concerns Septoria tritici. Nature of the assay: B-9. Septoria tritici in vitro cell test. Type of assay: cell-based. The following applies: Zymoseptoria tritici, 168 h; 20 ppm of active ingredient; 7 days incubation; liquid culture, absorbance; read-out: efficacy (inhibition of fungal growth). The essentials:
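Compounds from DMSO stocks (final DMSO ≤1%) were added to liquid medium containing S. tritici spores to test inhibition of germination and mycelial growth. After 7 days, mycelium growth was read spectrometrically and inhibition derived from absorbance versus fungicide-free control wells.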

Turning to `Cc1ccc2c(C(=O)NCC(F)(F)c3ccc(C)c(C)c3)c(Oc3cccc(C(F)(F)F)c3)nnc2c1` [I-246], the pest or weed control at 500 ppm with Sphaerotheca fuliginea is 90 to 100%; in assay [1], 80 to 89%; in the assay with Botrytis cinerea [3] it was 90 to 100%; in the assay on Alternaria brassicae it was 90 to 100%. Also, the inhibition at 20 ppm (in assay [2]; in the assay on Pyrenophora teres; with Botrytis cinerea [4]; in the assay on Septoria tritici) was 90 to 100% throughout.

With `Cc1ccc(C(F)(F)CNC(=O)c2c(Oc3cccc(C4CC4)c3F)nnc3c2CCC3)c(C)c1` [I-134], the pest or weed control at 500 ppm (in the assay on Sphaerotheca fuliginea; in assay [1]; in the assay on Botrytis cinerea [3]; in the assay with Alternaria brassicae) was 90 to 100% in each case. The inhibition at 20 ppm (in assay [2]; with Pyrenophora teres; with Botrytis cinerea [4]; in the assay with Septoria tritici) was 90 to 100% throughout.

Take `Cc1ccc(C(F)(F)CNC(=O)c2c(Oc3cccc(Cl)c3F)nnc3c2CCC3)c(Cl)c1` [I-143]: the pest or weed control at 500 ppm (in the assay with Sphaerotheca fuliginea; in assay [1]; in the assay on Botrytis cinerea [3]; with Alternaria brassicae) was 90 to 100% in each case. Also, the inhibition at 20 ppm (in assay [2]; in the assay on Pyrenophora teres; in the assay on Botrytis cinerea [4]; with Septoria tritici) was 90 to 100% throughout.

For the compound `Cc1ccc(C(F)(F)CNC(=O)c2c(Oc3cccc(C(F)(F)F)c3)nnc3c2CCC3)c(Cl)c1` [I-142], the pest or weed control at 500 ppm (in the assay on Sphaerotheca fuliginea; in assay [1]; in the assay with Botrytis cinerea [3]; in the assay on Alternaria brassicae) was 90 to 100% throughout. The inhibition at 20 ppm (in assay [2]; in the assay with Pyrenophora teres; with Botrytis cinerea [4]; with Septoria tritici) was 90 to 100% in each case.

Regarding `Cc1ccc(C(F)CNC(=O)c2c(Oc3cccc(C(F)(F)F)c3)nnc3c2COCC3)c(C)c1` (centres unmarked) [I-123], the pest or weed control at 500 ppm (in the assay on Sphaerotheca fuliginea; in assay [1]; with Botrytis cinerea [3]; in the assay on Alternaria brassicae) was 90 to 100% in each case. Besides, the inhibition at 20 ppm (in assay [2]; in the assay with Pyrenophora teres; in the assay with Botrytis cinerea [4]; in the assay on Septoria tritici) was 90 to 100% each time.

With `Cc1cc(Cl)ccc1C(F)(F)CNC(=O)c1c(Oc2cccc(Cl)c2)nnc2c1CCCC2` [I-146], the pest or weed control at 500 ppm (in the assay with Sphaerotheca fuliginea; in assay [1]; in the assay with Botrytis cinerea [3]; in the assay with Alternaria brassicae) was 90 to 100% in each case. The inhibition at 20 ppm was in the range of 70 to 79% in assay [2], 90 to 100% with Pyrenophora teres, 90 to 100% with Botrytis cinerea [4] and 90 to 100% in the assay with Septoria tritici.

As to `Cc1ccc(C(F)(F)CNC(=O)c2c(Oc3cccc(Cl)c3F)nnc3c2CCC3)c(C)c1` [I-133], the pest or weed control at 500 ppm (in the assay with Sphaerotheca fuliginea; in assay [1]; in the assay with Botrytis cinerea [3]; in the assay with Alternaria brassicae) was 90 to 100% each time. Further, the inhibition at 20 ppm (in assay [2]; in the assay on Pyrenophora teres; in the assay with Botrytis cinerea [4]; in the assay with Septoria tritici) was 90 to 100% throughout.

Take `Cc1cc(Br)ccc1C(F)(F)CNC(=O)c1c(Oc2cccc(Cl)c2)nnc2c1CCCC2` [I-151]: the pest or weed control at 500 ppm (with Sphaerotheca fuliginea; in assay [1]; in the assay with Botrytis cinerea [3]; with Alternaria brassicae) was 90 to 100% in each case. The inhibition at 20 ppm (in assay [2]; in the assay with Pyrenophora teres; in the assay on Botrytis cinerea [4]; with Septoria tritici) was 90 to 100% in each case.

As for `Cc1cccc(Oc2cnc3ccccc3c2C(=O)NCC(F)(F)c2ccc(C)cc2C)c1` [I-222], the pest or weed control at 500 ppm with Sphaerotheca fuliginea lay within 90 to 100%; in assay [1] it was 70 to 79%; with Botrytis cinerea [3], 90 to 100%; in the assay with Alternaria brassicae it was 90 to 100%. Further, the inhibition at 20 ppm in assay [2] was in the range of 90 to 100%; with Pyrenophora teres, 90 to 100%; in the assay with Botrytis cinerea [4], 90 to 100%; in the assay on Septoria tritici, 80 to 89%.

Take `Cc1ccc(C(F)(F)CNC(=O)c2c(Oc3cccc(Br)c3F)nnc3c2CCCC3)c(C)c1` [I-128]: the pest or weed control at 500 ppm (in the assay on Sphaerotheca fuliginea; in assay [1]; in the assay with Botrytis cinerea [3]; with Alternaria brassicae) was 90 to 100% in each case. Also, the inhibition at 20 ppm (in assay [2]; in the assay on Pyrenophora teres; in the assay on Botrytis cinerea [4]; in the assay on Septoria tritici) was 90 to 100% throughout.

The values above are taken from patent US20230192617A1, “AZABICYCLIC(THIO)AMIDES AS FUNGICIDAL COMPOUNDS” (Bayer CropScience Aktiengesellschaft, priority 2020, published 2023).
